According to the supplement of paper PMC11281043:
± gives the standard deviation of the averaged measurements.

How the values were obtained:
[1] = system: Danio rerio embryo/larva; assay: BMC swim bladder non-inflation; higher = less potent; conditions: max tested concentration (log10 uM): 2; exposure: 6-8 hpf to 5 dpf, scored at 6 dpf
Procedure: (§1)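 Zebrafish embryos (with chorion) were exposed from 6-8 hpf to each PFAS (8-point half-log series, top concentration up to 100 uM, 0.4% DMSO, sealed plates, 26 C; n = 6 embryos per concentration), rinsed at 5 dpf and scored at 6 dpf by two blinded observers for mortality, hatching and malformations. Endpoint scores are the % of living larvae affected (dead larvae excluded; […]). Curves were fitted with tcpl (cutoff 16%), and the BMC is the concentration at a benchmark response of 21.6%.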

[2] = system: Danio rerio embryo/larva; assay: BMC any abnormality; max tested concentration (log10 uM): 2; higher = less potent; conditions: exposure: 6-8 hpf to 5 dpf, scored at 6 dpf
Procedure: as §1

[3] = system: Danio rerio embryo/larva; assay: max % larvae unhatched across tested concentrations; max tested concentration (log10 uM): 2; higher = more toxic; conditions: exposure: 6-8 hpf to 5 dpf, scored at 6 dpf
[4] = system: Danio rerio embryo/larva; assay: max % larvae with any abnormality across tested concentrations; max tested concentration (log10 uM): 2; higher = more toxic; extreme values may be limits of the assay; conditions: exposure: 6-8 hpf to 5 dpf, scored at 6 dpf
[5] = system: Danio rerio embryo/larva; assay: max % larvae dead across tested concentrations; max tested concentration (log10 uM): 2; higher = more toxic; extreme values may be limits of the assay; conditions: exposure: 6-8 hpf to 5 dpf, scored at 6 dpf

| Structure (SMILES) | BMC swim bladder non-inflation [1] [µM] | BMC any abnormality [2] [µM] | max % larvae unhatched across tested concentrations [3] [%] | max % larvae [4] [%] | max % larvae dead across tested concentrations [5] [%] |
| --- | --- | --- | --- | --- | --- |
| OCCCC(F)(F)C(F)(F)C(F)(F)C(F)(F)C(F)(F)C(F)(F)C(F)(F)F [7:3 Fluorotelomer alcohol] | 99 | 38.3 | 0 | 45.8 |  |
| C=C(C)C(=O)OCC(F)(F)C(F)(F)C(F)(F)C(F)F [1H,1H,5H-Perfluoropentyl methacrylate] |  | 27.9 | 0 | 66.7 | 66.7 |
| O=C(O)CCC(F)(F)C(F)(F)C(F)(F)F [3:3 Fluorotelomer carboxylic acid] |  | 87.8 | 0 | 25 | 0 |
| OCC(F)(F)C(F)(F)C(F)(F)F [3:1 Fluorotelomer alcohol] |  |  | 0 | 8.33 | 0 |
| O=C(Cl)C(F)(F)C(F)(F)C(F)(F)C(F)(F)C(F)(F)C(F)(F)C(F)(F)C(F)(F)F [Perfluorononanoyl chloride] |  | 25 | 0 | 100 | 100 |
| O=C(O)CCC(F)(C(F)(F)F)C(F)(F)F [4,4-bis(Trifluoromethyl)-4-fluoropropanoic acid] |  |  | 0 | 16.7 | 16.7 |
| NCC(F)(F)C(F)(F)C(F)(F)C(F)(F)C(F)(F)C(F)(F)C(F)(F)F [1H,1H-Perfluorooctylamine] |  |  | 0 | 33.3 ± 47 | 8.33 ± 12 |
| CCOC(=O)CC(=O)C(F)(F)C(F)(F)F [Ethyl pentafluoropropionyl acetate] |  |  | 0 | 0 | 0 |
| O=C(O)C(F)(F)C(F)(F)C(F)(F)C(=O)O [Perfluoropentanedioic acid] |  |  | 0 | 0 | 0 |
| O=C(Cl)C(F)(F)C(F)(F)C(F)(F)C(F)(F)C(F)(F)C(F)(F)F [Perfluoroheptanoyl chloride] |  |  | 0 | 16.7 | 0 |
| O=C(Cl)C(F)(F)C(F)(F)C(F)(F)C(=O)Cl [Hexafluoroglutaryl chloride] |  |  | 0 | 0 | 0 |
| OCC(F)(F)C(F)(F)C(F)(F)C(F)F [1H,1H,5H-Perfluoropentanol] |  |  | 0 | 16.7 | 16.7 |
| O=C(O)C(F)(F)C(F)(F)C(F)(F)C(F)(F)C(F)(F)C(F)(F)C(F)(F)C(F)F [9H-Perfluorononanoic acid] |  |  | 0 | 18.8 | 0 |
| O=C(O)C(F)(F)OC(F)(F)C(F)(F)OC(F)(F)C(=O)O [Perfluoro-3,6-dioxaoctane-1,8-dioic acid] |  |  | 0 | 0 | 0 |
| C=C(C)C(=O)OCCC(F)(F)C(F)(F)C(F)(F)C(F)(F)C(F)(F)C(F)(F)F [2-(Perfluorohexyl)ethyl methacrylate] |  |  | 0 | 0 | 0 |
| O=S(=O)(O)C(F)(F)C(F)(F)C(F)(F)C(F)(F)C(F)(F)C(F)(F)F [Potassium perfluorohexanesulfonate] |  | 31.3 | 0 | 90.9 |  |
| O=C(O)C=C(C(F)(F)F)C(F)(F)F [3,3-Bis(trifluoromethyl)-2-propenoic acid] |  |  | 0 | 2.08 | 0 |
| O=C(O)C(F)(F)OC(F)(F)C(F)(F)OC(F)(F)F [Perfluoro-3,6-dioxaheptanoic acid] |  |  | 0 | 4.17 | 0 |
| O=C(O)C(F)(F)C(F)(F)C(F)(F)C(F)(F)F [Perfluoropentanoic acid] |  |  | 0 | 25 | 0 |
| O=S(=O)(O)CCC(F)(F)C(F)(F)C(F)(F)C(F)(F)C(F)(F)C(F)(F)F [6:2 Fluorotelomer sulfonic acid] |  |  | 0 | 16.7 | 16.7 |

| Structure (SMILES) | BMC swim bladder non-inflation [1] [µM] | BMC any abnormality [2] [µM] | max % larvae unhatched across tested concentrations [3] [%] | max % larvae [4] [%] | max % larvae dead across tested concentrations [5] [%] |
| --- | --- | --- | --- | --- | --- |
| FC(F)(F)C(F)(F)C(F)(F)C(F)(F)C(F)(F)C(F)(F)I [Perfluoro-1-iodohexane] |  |  | 0 | 0 | 0 |
| O=C(O)C(F)(F)C(F)(F)C(F)(F)C(F)(F)C(=O)O [Perfluorohexanedioic acid] |  |  | 0 | 0 | 0 |
| C=C(C)C(=O)OCCC(F)(F)C(F)(F)C(F)(F)C(F)(F)C(F)(F)C(F)(F)C(F)(F)C(F)(F)F [2-(Perfluorooctyl)ethyl methacrylate] |  |  | 0 | 0 | 0 |
| OCCCC(F)(F)C(F)(F)C(F)(F)C(F)(F)C(F)(F)C(F)(F)C(F)(F)C(F)(F)F [3-(Perfluorooctyl)propanol] |  |  | 0 | 0 | 0 |
| FC(F)(F)COC(OCC(F)(F)F)OCC(F)(F)F [tris(Trifluoroethoxy)methane] |  |  | 0 | 0 | 0 |
| O=C(O)C(F)(F)C(F)(F)F [Perfluoropropanoic acid] |  |  | 0 | 0 | 0 |
| O=C(O)C(F)(F)C(F)(F)C(=O)O [Perfluorobutanedioic acid] |  |  | 0 | 16.7 | 16.7 |
| C=C(C)C(=O)OCCC(F)(F)C(F)(F)C(F)(F)C(F)(F)C(F)(C(F)(F)F)C(F)(F)F [(Perfluoro-5-methylhexyl)ethyl 2-methylprop-2-enoate] |  |  | 0 | 0 | 0 |
| CN(C(=O)C(F)(F)C(F)(F)C(F)(F)F)[Si](C)(C)C [N-Methyl-N-trimethylsilylheptafluorobutyramide] |  |  | 0 | 0 | 0 |
| FC(F)(F)C(F)(F)CNCC(F)(F)C(F)(F)F [Bis(1H,1H-perfluoropropyl)amine] |  |  | 0 | 16.7 | 0 |
| O=S(=O)(O)C(F)(F)C(F)(F)C(F)(F)C(F)(F)F [Perfluorobutanesulfonic acid] |  |  | 0 | 0 | 0 |
| FC(F)(Br)C(F)(F)C(F)(F)C(F)(F)C(F)(F)C(F)(F)Br [1,6-Dibromododecafluorohexane] |  |  | 0 | 4.17 | 0 |
| O=S(=O)(O)CCC(F)(F)C(F)(F)C(F)(F)C(F)(F)C(F)(F)C(F)(F)C(F)(F)C(F)(F)F [8:2 Fluorotelomer sulfonic acid] |  |  | 0 | 0 | 0 |
| NC(=O)C(F)(F)C(F)(F)C(F)(F)C(F)(F)C(F)(F)C(F)(F)C(F)(F)F [Perfluorooctanamide] |  |  | 0 | 0 | 0 |
| O=P(O)(O)OCCC(F)(F)C(F)(F)C(F)(F)C(F)(F)C(F)(F)C(F)(F)F [6:2 Fluorotelomer phosphate monoester] |  |  | 0 | 0 | 0 |
| O=C(O)C(F)(F)C(F)(F)C(F)(F)C(F)(F)C(F)(F)F [Perfluorohexanoic acid] |  |  | 0 | 0 | 0 |
| CCN(CCO)S(=O)(=O)C(F)(F)C(F)(F)C(F)(F)C(F)(F)C(F)(F)C(F)(F)C(F)(F)C(F)(F)F [N-Ethyl-N-(2-hydroxyethyl)perfluorooctane sulfonamide] |  |  | 0 | 12.5 | 0 |
| C=CC(=O)OCCC(F)(F)C(F)(F)C(F)(F)C(F)(F)C(F)(F)C(F)(F)C(F)(F)C(F)(F)F [2-(Perfluorooctyl)ethyl acrylate] |  |  | 0 | 0 | 0 |
| O=S(=O)(O)CCC(F)(F)C(F)(F)C(F)(F)C(F)(F)F [4:2 Fluorotelomer sulfonic acid] |  |  | 0 | 0 | 0 |
| FC(F)(F)C(F)(F)C(F)(F)CI [Heptafluorobutyl iodide] |  |  | 0 | 0 | 0 |
